Test results published in patent US20110207660A1, “PHARMACEUTICAL FORMULATIONS OF AN HCV PROTEASE INHIBITOR IN A SOLID MOLECULAR DISPERSION” (Schering Corporation, priority 2008, published 2011).

How the values were obtained:
[1] = Biopharmaceutics Classification System class; format: physicochemical; conditions: low solubility and low permeability
[2] = Clinical Study 2: once-a-day 300 mg Compound I with 100 mg ritonavir for 10 days, healthy human subjects, fed; conditions: in vivo, steady state, Day 10, formulation G tablets 3×100 mg QD + 100 mg ritonavir QD, 8 healthy human subjects, read-out: Cmin Range
Experimental: The pharmacokinetic profile of Compound I following once-a-day oral administration of 300 mg Compound I in a formulation of the present invention in tablet form (specifically exemplary formulation G described in Table 3A, 3×100 mg, QD) in combination with 100 mg ritonavir (RTV, 1×100 mg, QD) for 10-days to healthy human subjects under fed conditions (i.e., following a standard meal) was determined. […] Blood was collected from each subject pre-dose (on Days 7, 8, and 9), as well as 0.5, 1, 1.5, 2, 3, 4, 5, 6, 7, 8, 10, 12, 16, and 24 hr post-dose (on Day 10) for determining the concentration of Compound I in the plasma and to calculate the pharmacokinetic parameters for each formulation.

[3] = in vitro IC90 of Compound I; conditions: reference line in FIGS. 5A and 5B

## CCCC[C@H](NC(=O)[C@@H]1[C@@H]2[C@H](CN1C(=O)[C@@H](NC(=O)NC1(CS(=O)(=O)C(C)(C)C)CCCCC1)C(C)(C)C)C2(C)C)C(=O)C(=O)NC1CC1 [Compound I]
[1]
  Biopharmaceutics Classification System class: Class IV
[2]
  concentration at 10 days: 167 to 426 ng/mL
[3]
  in vitro IC90: 0.028 µg/mL
